# Tested on: narkotisierten Katze
# Assay: Blood-pressure-lowering and positive inotropic effect in the anaesthetised cat
# Assay type: in vivo, Katzen
# Conditions: mean of 2 cats; for diastol. Blutdruckänderung in mmHg: anaesthetised cats (Pentobarbital-Natrium), 0,3 mg/kg i.v., Aorta abdominalis; for Zunahme von dp/dt in %: dp/dt max from left ventricular pressure
# Method: 1. Bestimmung der blutdrucksenkenden und ositiv inotropen Wirkung an der narkotisierten Katze:
# Die Untersuchungen wurden an Katzen durchgeführt, die mit Pentobarbital-Natrium (40 mg/kg i.p. + 8 mg/kg/Stunde) narkotisiert waren. Die Tiere atmeten spontan. Der arterielle Blutdruck wurde in der Aorta abdominalis mit einem StathamDruckwandler (P 23 Dc) gemessen. Für die Erfassung der positiv inotropen Wirkung wurde mit einem Kathetertipmanometer (Millar PC-350 A) der Druck in der linken Herzkammer gemessen. Daraus wurde der Kontraktilitätsparameter dp/dt max mittels eines Analogdifferenzierers gewonnen. Die zu untersuchende Substanz wurde in eine Vena femoralis injiziert. Als Lösungsmittel diente Polydiol 200. Die Substanz wurde an 2 Katzen geprüft, Dosis 0,3 mg/kg i.v..
# [1] = anaesthetised cats, 0,3 mg/kg i.v.
Compound,diastol. Blutdruckänderung in mmHg [mmHg],Wirkungsdauer (Halbwertszeit) [1] [Minuten],Zunahme von dp/dt in % [1],Zunahme der Herzfrequenz [1]
"CCN1C(=O)C(C)(C)c2cc3[nH]c(-c4ccncc4)nc3cc21 [A, 5-Äthyl-7,7-dimethyl-2-(4-pyridyl)-6,7-dihyro-3H,5H-pyrrolo[2,3-f]benzimidazol-6-on]",-33,>80,+55%,–
"CCN1C(=O)C(C)(C)c2cc3[nH]c(-c4ccco4)nc3cc21 [B, 5-Äthyl-7,7-dimethyl-2-(2-furyl)-6,7-dihydro-3H,5H-pyrrolo[2,3-f]benzimidazol-6-on]",-31,26,+49%,–
"CCN1C(=O)C(C)(C)c2cc3[nH]c(-c4ccc(S(C)(=O)=O)cc4)nc3cc21 [C, 5-Äthyl-7,7-dimethyl-2-(4-methylsulfonyl-phenyl)-6,7-dihydro-3H,5H-pyrrolo[2,3-f]benzimidazol-6-on]",-16,>60,+91%,+12%
"CCN1C(=O)C(C)(C)c2cc3[nH]c(-c4ocnc4C)nc3cc21 [D, 5-Äthyl-7,7-dimethyl-2-(4-methyl-oxazol-5-yl)-6,7-dihydro-3H,5H-pyrrolo[2,3-f]benzimidazol-B-on]",-31,7,+50%,–

# — EP0268178A1, “Pyrrolo-benzimidazoles, medicaments containing these compounds and process for their preparation” (Dr. Karl Thomae GmbH, priority 1986, dated 1988)
